Experimental data: US12522582B2 (Gilead Sciences, Inc., priority 2022, dated 2026)
Where two headings read alike, the source gives them in different places.

Legend:
[1] = biological target: hCAII (Homo sapiens (Human), UniProt P00918); assay: Carbonic Anhydrase (Esterase) Biochemical Assay, hCAII
Method: (§1) 10-dose, 3-fold serial dilutions of compounds were prepared at starting concentrations of 10 mM in 100% DMSO. […] Final starting concentration in the assay was 50 μM. DMSO (no compound) and acetazolamide were included on each microplate as negative and positive controls, respectively.
(§2) Following a preincubation at room temperature for 15 minutes, 20 μl of a 4 mM solution of 4NPA substrate (Sigma cat #N8130) in assay buffer were added to start the reaction.

[2] = tested on: HSV-2 virus (MS strain); assay: HSV qPCR Assay (HSV replication in ARPE-19 cells); conditions: Human alphaherpesvirus 2, ARPE-19, read-out: EC50-HSV2-qPCR
Method: HSV replication in the presence or absence of compounds was measured by qPCR according to the following procedure: DMSO stock compound solutions (1-10 mM) were serially diluted (2.5-fold) in DMSO in clear round bottom 96-well plates. Compounds were then diluted 1:20 in assay medium (DMEM/F12 Glutamax+2% Fetal bovine serum+1% Penicillin Streptomycin) and 10 μL of these dilutions were added to 96-well tissue culture plates for final starting concentrations between 0.5 and 5 μM.
Cells were resuspended in assay medium, counted, and cell density was adjusted to 2.8E+05 cells/ml with assay medium. […] 90 μL of the infection suspension (25,000 cells) were added to assay plates in which compounds were already added. After an overnight incubation at 37° C., cell culture medium was removed, and cell lysis was performed using the prepGEM Universal kit (MicroGEM cat #PUN1000). Specifically, 100 μL of prepGEM master mix (94.75 μL Water, 5 μL buffer, 0.25 μL enzyme stock) were added to each well and plates were incubated at room temperature for 15 minutes, with the 5 last minutes on a plate shaker. The cell lysates were then transferred to a 96-well PCR compatible microplate (Applied Biosystems, Cat #N8010560). Plates were sealed with a heat resistant plastic sealer and heated on a thermal cycler using the following conditions: 75° C. for 10 min, 95° C. for 5 minutes. Finally, plates were cooled down to room temperature with light shaking before proceeding to the qPCR setup.
Plates were sealed with a clear sealer, spun down, and qPCR reactions were performed in an Applied Biosystems Quantstudio 7 Flex instrument using the following conditions: 95° C. for 2 minutes, then 40 cycles alternating between 95° C. for 5 seconds and 60° C. for 30 seconds.
Analysis was performed using dCT method where dCT=CT (test)−CT (DMSO). Fold change was calculated using the 2^^dCT equation. This fold change was then converted to percentage relative to DMSO control (no drug). EC50s were determined by non-linear regression analysis using GraphPad Prism software.

[3] = tested on: HSV-2 virus (MS strain); assay: HSV-2 Cellomics Assay (immunofluorescence of HSV protein gD in infected ARPE-19 cells); conditions: Human alphaherpesvirus 2, ARPE-19, 16 h
Method: Compounds were tested for their ability to inhibit HSV-2 replication by monitoring the expression of the HSV protein gD using a high-throughput immunofluorescence-based assay. 10-dose, 3-fold serial dilutions of compounds were prepared at starting concentrations of 0.2 or 2 mM in 100% DMSO. […] The final starting concentration in the assay was either 1 or 10 μM. DMSO (no compound) and pritelivir were included on each microplate as negative and positive controls, respectively.
Prior to confluence, cells were transferred to a centrifuge tube and spun for 5 minutes at 1000 rpm. Cells were resuspended in assay medium (DMEM/F-12 Glutamax, 2% FBS, 1% Penicillin-Streptomycin) and counted. Cell density was adjusted to 150,000 cells/ml and infected with HSV-2 virus (MS strain, ATCC cat #VR-540) at a MOI of 0.06 in a 50 ml conical tube for 1 hour under constant rocking. Cells were then spun for 5 minutes at 1000 rpm and the media replaced with assay medium containing either 2% FBS or 10% human serum (EMD Millipore cat #S1-100 ML). 50 μl of the infection suspension were added into microplate wells that were pre-spotted with compounds (7,500 cells per well). Plates were incubated for 16 hours at 37° C.
After a 30-minute incubation at room temperature, plates were washed 4 times with 100 μl/well of PBS using a Biotek plate washer. […] Plates were washed 4 times again and 50 μl of DPBS were added to all wells prior to sealing the plates with a black adhesive seal. Fluorescence was measured on a Cellomics plate reader.
Data analysis was carried out using the Thermo Scientific HCS Studio software. Briefly, cells were identified using the DAPI nuclear stain and thresholds were set to filter cells out based on shape and size. A second threshold based on green fluorescence intensity (detection of HSV-2 gD) was set to identify HSV-2 infected cells. Data was reported as the average fluorescence intensity of HSV-2 infected cells.

[4] = MT-4 CC50 Assay (CellTiter Glo); format: cell-based; conditions: human, MT-4 cells, luminescence, read-out: CC50-MT4
Method: Compounds were tested in 384-well plates: 18 compounds in duplex. Compounds were diluted in 7 points, 3-fold with DMSO by Bravo. Assay plate, which contains 20 uL medium with compounds, was seeded 2000 MT-4 cells in 20 uL/well by Multi-drop to start the assay. The plate was incubated at 37° C. for 5 days. On 6th day, the CellTiter Glo 40 uL was added in each well. Luminescence was read by Victor II.

[5] = tested on: human cryopreserved hepatocytes; assay: Stability Assay in Cryopreserved Hepatocytes (human); format: in vitro ADME; conditions: 1 μM, calculated from half-life using the well-stirred model
Method: Test compound was incubated at 1 μM with either rat or human cryopreserved hepatocytes (BioIVT, Westbury, NY) up to 6 hours at 37° C. in a 24-well plate format (1×10^6 cells/mL per well). At specified time points, samples were transferred to a 96-well plate and quenched with 2 volumes of a solution containing 90% acetonitrile 10% methanol 0.1% formic acid and internal standard. Sample plate was centrifuged at 3200 rpm for 15 min and supernatants transferred to a new plate containing half volume of water. The resulting solution was analyzed by LC-MS/MS. Data (analyte to internal standard peak area ratio) was plotted on a semi-log scale and fitted using an exponential fit. Assuming first order kinetics, the half-life (t1/2) and rate of metabolism were determined. Predicted hepatic clearance was calculated from the half-life using the well-stirred model.

[6] = biological target: hCAI (Homo sapiens (Human), UniProt P00915); assay: Carbonic Anhydrase (Esterase) Biochemical Assay, hCAI
Method: as §1, §2

[7] = read-out: IC50-hCAII, 4-nitrophenyl acetate hydrolysis, 60 min
[8] = read-out: EC50-HSV2-10% Human Serum
[9] = read-out: IC50-hCAI, 4-nitrophenyl acetate hydrolysis, 60 min

Chain of hCAI (P00915 whole entry): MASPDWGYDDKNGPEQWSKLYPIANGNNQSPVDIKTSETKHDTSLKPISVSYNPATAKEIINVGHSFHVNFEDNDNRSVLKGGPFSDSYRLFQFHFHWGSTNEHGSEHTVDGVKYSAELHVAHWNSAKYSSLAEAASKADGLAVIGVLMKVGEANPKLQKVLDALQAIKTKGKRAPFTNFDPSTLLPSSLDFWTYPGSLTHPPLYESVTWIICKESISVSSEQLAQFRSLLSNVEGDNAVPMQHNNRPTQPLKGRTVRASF

In the case of NS(=O)(=O)c1ccc2c(c1)N(C(=O)C1Cc3ccc(-c4ncccc4F)cc3C1)CC2 (centres unmarked) [Example 76], the IC50 [1, 7] is reported as ≥ 25 µM, the EC50 [2] is reported as 22 nM and the EC50 ([3]; read-out: EC50-HSV2-FBS) is reported as 107 nM. The CC50 at 5 days [4] was 2500 nM.
For NS(=O)(=O)c1ccc2c(c1)N(C(=O)[C@@H]1Cc3ccc(-c4ccccn4)cc3C1)CC2 [Example 81, (R)-1-(5-(pyridin-2-yl)-2,3-dihydro-1H-indene-2-carbonyl)indoline-6-sulfonamide], the IC50 [1, 7] was ≥ 25 µM, the EC50 [2] was 1.9 nM and the “Predicted human hepatic clearance” value [5] was 0.14 L/h/kg. For the same molecule, the EC50 [3, 8] was ≥ 25000 nM, the EC50 ([3]; read-out: EC50-HSV2-FBS) was 20 nM and the CC50 at 5 days [4] was ≥ 50000 nM.
With NS(=O)(=O)c1ccc2c(c1)N(C(=O)[C@@H]1Cc3ccc(-c4cnccn4)cc3C1)CC2 [Example 87, (R)-1-(5-(pyrazin-2-yl)-2,3-dihydro-1H-indene-2-carbonyl)indoline-6-sulfonamide] the “Predicted human hepatic clearance” value [5] was 0.31 L/h/kg, the EC50 [3, 8] was 3280 nM and the EC50 ([3]; read-out: EC50-HSV2-FBS) was 13 nM. For the same molecule, the CC50 at 5 days [4] was 306 nM.
In the case of NS(=O)(=O)c1ccc2c(c1)N(C(=O)[C@@H]1Cc3ccc(-c4ncccc4F)cc3C1)CC2 [Example 89, (R)-1-(5-(3-fluoropyridin-2-yl)-2,3-dihydro-1H-indene-2-carbonyl)indoline-6-sulfonamide], the “Predicted human hepatic clearance” value [5] is reported as 0.05 L/h/kg, the EC50 [3, 8] is reported as 1960 nM and the EC50 ([3]; read-out: EC50-HSV2-FBS) is reported as 23 nM. It also gave a CC50 at 5 days [4] of 308 nM.
For C[C@H]1c2ccc(-c3ccccn3)cc2C[C@@H]1C(=O)N1CCc2ccc(S(N)(=O)=O)cc21 [Example 94, 1-((1R,2S)-1-methyl-5-(pyridin-2-yl)-2,3-dihydro-1H-indene-2-carbonyl)indoline-6-sulfonamide], the IC50 [1, 7] was ≥ 50 µM, the EC50 [2] was 3.9 nM and the EC50 [3, 8] was 195 nM. The EC50 ([3]; read-out: EC50-HSV2-FBS) was 49 nM and the CC50 at 5 days [4] was ≥ 50000 nM.
In the case of C[C@H]1c2ccc(-c3ccccn3)cc2C[C@@H]1C(=O)N1CCc2cc(F)c(S(N)(=O)=O)cc21 [Example 97, 5-fluoro-1-((1R,2S)-1-methyl-5-(pyridin-2-yl)-2,3-dihydro-1H-indene-2-carbonyl)indoline-6-sulfonamide], the IC50 [1] is reported as ≥ 50 µM, the EC50 [2] is reported as 1.3 nM and the EC50 [3, 8] is reported as 56 nM. For the same molecule, the EC50 ([3]; read-out: EC50-HSV2-FBS) was 14 nM, the CC50 at 5 days [4] was ≥ 50000 nM and the IC50 [6] was ≥ 50 µM.
In the case of NS(=O)(=O)c1cc2c(cc1F)C[C@@H](CF)N2C(=O)[C@@H]1Cc2ccc(-c3ccccn3)cc2C1 [Example 125, (S)-5-fluoro-2-(fluoromethyl)-1-((R)-5-(pyridin-2-yl)-2,3-dihydro-1H-indene-2-carbonyl)indoline-6-sulfonamide], the EC50 [2] is reported as 0.56 nM, the “Predicted human hepatic clearance” value [5] is reported as 0.062 L/h/kg and the EC50 [3, 8] is reported as 70.2 nM. The EC50 ([3]; read-out: EC50-HSV2-FBS) was 11.1 nM.
For NS(=O)(=O)c1cc2c(cc1F)C[C@H](CF)N2C(=O)[C@@H]1Cc2ccc(-c3ccccn3)cc2C1 [Example 126, (R)-5-fluoro-2-(fluoromethyl)-1-((R)-5-(pyridin-2-yl)-2,3-dihydro-1H-indene-2-carbonyl)indoline-6-sulfonamide], the EC50 [2] was 56.7 nM, the “Predicted human hepatic clearance” value [5] was 0.16 L/h/kg and the EC50 [3, 8] was ≥ 10000 nM. For the same molecule, the EC50 ([3]; read-out: EC50-HSV2-FBS) was ≥ 1000 nM.
In the case of NS(=O)(=O)c1cc2c(cc1F)C[C@H](C(F)F)N2C(=O)[C@@H]1Cc2ccc(-c3ccccn3)cc2C1 [Example 127, (R)-2-(difluoromethyl)-5-fluoro-1-((R)-5-(pyridin-2-yl)-2,3-dihydro-1H-indene-2-carbonyl)indoline-6-sulfonamide], the IC50 [1, 7] is reported as 2.46 µM, the EC50 [2] is reported as 58.3 nM and the “Predicted human hepatic clearance” value [5] is reported as 0.34 L/h/kg. For the same molecule, the EC50 [3, 8] was 5440 nM, the EC50 ([3]; read-out: EC50-HSV2-FBS) was 553 nM and the IC50 [6, 9] was 4.19 µM.
In the case of NS(=O)(=O)c1cc2c(cc1F)C[C@@H](C(F)F)N2C(=O)[C@@H]1Cc2ccc(-c3ccccn3)cc2C1 [Example 128, (S)-2-(difluoromethyl)-5-fluoro-1-((R)-5-(pyridin-2-yl)-2,3-dihydro-1H-indene-2-carbonyl)indoline-6-sulfonamide], the IC50 [1, 7] is reported as 7.42 µM, the EC50 [2] is reported as 1.4 nM and the “Predicted human hepatic clearance” value [5] is reported as 0.21 L/h/kg. For the same molecule, the EC50 [3, 8] was 62.9 nM, the EC50 ([3]; read-out: EC50-HSV2-FBS) was 8.3 nM and the IC50 [6, 9] was ≥ 50 µM.
With C[C@H]1c2ccc(-c3ccccn3)cc2C[C@@H]1C(=O)N1C[C@@H](C(F)(F)F)c2cc(F)c(S(N)(=O)=O)cc21 [Example 138, (S)-5-fluoro-1-((1R,2S)-1-methyl-5-(pyridin-2-yl)-2,3-dihydro-1H-indene-2-carbonyl)-3-(trifluoromethyl)indoline-6-sulfonamide] the EC50 [2] was 2 nM, the “Predicted human hepatic clearance” value [5] was 0.06 L/h/kg and the EC50 [3, 8] was 184 nM. For the same molecule, the EC50 ([3]; read-out: EC50-HSV2-FBS) was 23.4 nM.
With C[C@H]1Cc2cc(F)c(S(N)(=O)=O)cc2N1C(=O)[C@H]1Cc2ccc(-c3ccccn3)cc2C1 [Example 140, (S)-5-fluoro-2-methyl-1-((S)-5-(pyridin-2-yl)-2,3-dihydro-1H-indene-2-carbonyl)indoline-6-sulfonamide] the “Predicted human hepatic clearance” value [5] was 0.36 L/h/kg, the EC50 [3, 8] was ≥ 10000 nM and the EC50 ([3]; read-out: EC50-HSV2-FBS) was ≥ 10000 nM.
